The numbers were not newly measured in patent US6777561B1, “Compounds” (AstraZeneca Canada Inc., priority 1998, dated 2004), which cites them from elsewhere.

For one data set, the system named is δ receptor. The settings on record: background statement on non-peptidic δ antagonists.
The conditions of data set [1]: background statement on non-peptidic δ antagonists.

Regarding `Oc1ccc2c3c1O[C@H]1c4[nH]c5ccccc5c4C[C@@]4(O)[C@@H](C2)N(CC2CC2)CC[C@]314` [naltrindole], the “selectivity for the δ receptor vs. μ receptor binding” value in the data set with δ receptor is given as less than 10 fold. For the same compound, the analgesic activity result in data set [1] was “no analgesic activity”.
